Laboratory results: PMC8949142 (2022)

How the values were obtained:
[1] = tested on: G48nop (FAM) (DNA, aptamer) GCGACCGAAGTGAGGCTCGATCCAAGGTGGACGGGAGGTTGGATTGTGCGTG; assay: microscale thermophoresis; conditions: 100 mM Na+, 5 mM K+, 2 mM Mg2+, 1 mM Ca2+, 20 mM Tris-HCl pH 7.6, 0.02% Tween-20, 25 °C
[2] = tested on: G48nop (DNA, aptamer) GCGACCGAAGTGAGGCTCGATCCAAGGTGGACGGGAGGTTGGATTGTGCGTG; assay: biolayer interferometry; conditions: 100 mM Na+, 5 mM K+, 2 mM Mg2+, 1 mM Ca2+, 20 mM Tris-HCl pH 7.6
[3] = tested on: random sequence (control) (DNA, single strand) GAGCCTTAGCAGCACTTCACACGATCCACCCTTAAGGCCAACCTTAACACGACCTCAAACACTGCGTAATGACTGTAGTGATGCCTTA; assay: biolayer interferometry; conditions: 100 mM Na+, 5 mM K+, 2 mM Mg2+, 1 mM Ca2+; 20 mM Tris-HCl pH 7.6; tested at 0.5 µM
[4] = tested on: G48nors (DNA, aptamer) TGAGGCTCGATCCAAGGTGGACGGGAGGTTGGATTGTGCGTG; assay: biolayer interferometry; conditions: 100 mM Na+, 5 mM K+, 2 mM Mg2+, 1 mM Ca2+; 20 mM Tris-HCl pH 7.6; 1:1 fit
[5] = tested on: G24 (DNA, aptamer) GGGAGGACGAAGCGGAACGGGCGGGATTTGAGGCTCGATCCGACTACGGATACGGCTTGCTTGTATCCGCCAGAAGACACGCCCGACA; assay: biolayer interferometry; conditions: 100 mM Na+, 5 mM K+, 2 mM Mg2+, 1 mM Ca2+; 20 mM Tris-HCl pH 7.6; 1:1 fit
[6] = tested on: control (random) sequence (FAM) (DNA, single strand) GAGCCTTAGCAGCACTTCACACGATCCACCCTTAAGGCCAACCTTAACACGACCTCAAACACTGCGTAATGACTGTAGTGATGCCTTA; assay: microscale thermophoresis; conditions: 100 mM Na+, 5 mM K+, 2 mM Mg2+, 1 mM Ca2+; 20 mM Tris-HCl pH 7.6, 0.02% Tween-20, 25 °C; GYM-A up to 10,000 nM; not fittable
[7] = tested on: G48norsj (DNA, aptamer) CGATCCAAGGTGGACGGGAGGTTGGATTG; assay: biolayer interferometry; conditions: 100 mM Na+, 5 mM K+, 2 mM Mg2+, 1 mM Ca2+; 20 mM Tris-HCl pH 7.6; 1:1 fit
[8] = tested on: G16 (DNA, aptamer) GGGAGGACGAAGCGGAACCACCTTGAGATGAGGCTCGATCACCGGTGGGTATAGTGGTCGCGATGTATACCAGAAGACACGCCCGACA; assay: biolayer interferometry; conditions: 100 mM Na+, 5 mM K+, 2 mM Mg2+, 1 mM Ca2+; 20 mM Tris-HCl pH 7.6; 1:1 fit
[9] = tested on: G29 (DNA, aptamer) GGGAGGACGAAGCGGAACCGTAGGAAAGTGAGGCTCGATCTACCCTTGGATCGATTTGTCAGGTGGGGACCAGAAGACACGCCCGACA; assay: biolayer interferometry; conditions: 100 mM Na+, 5 mM K+, 2 mM Mg2+, 1 mM Ca2+; 20 mM Tris-HCl pH 7.6; 1:1 fit
[10] = tested on: G48 (DNA, aptamer) GGGAGGACGAAGCGGAACGCGACCGAAGTGAGGCTCGATCCAAGGTGGACGGGAGGTTGGATTGTGCGTGCAGAAGACACGCCCGACA; assay: biolayer interferometry; conditions: 100 mM Na+, 5 mM K+, 2 mM Mg2+, 1 mM Ca2+; 20 mM Tris-HCl pH 7.6; 1:1 fit
[11] = tested on: G48nop (unlabeled) (DNA, aptamer) GCGACCGAAGTGAGGCTCGATCCAAGGTGGACGGGAGGTTGGATTGTGCGTG; assay: circular dichroism; conditions: 100 mM Na+, 5 mM K+, 2 mM Mg2+, 1 mM Ca2+; 20 mM Tris-HCl pH 7.6, 20 °C; 5 µM aptamer; qualitative
[12] = tested on: G79 (DNA, aptamer) GGGAGGACGAAGCGGAACGGGGGTGGGTTGAGGCTCGATCATGATAGCGAATTGGACACGATTCGTGTACCAGAAGACACGCCCGACA; assay: biolayer interferometry; conditions: 100 mM Na+, 5 mM K+, 2 mM Mg2+, 1 mM Ca2+; 20 mM Tris-HCl pH 7.6; 1:1 fit
[13] = tested on: G48nop (DNA, aptamer) GCGACCGAAGTGAGGCTCGATCCAAGGTGGACGGGAGGTTGGATTGTGCGTG; assay: BLI aptasensor calibration, five-parameter logistic fit; conditions: 100 mM Na+, 5 mM K+, 2 mM Mg2+, 1 mM Ca2+; 20 mM Tris-HCl pH 7.6; GYM-A 55–14,000 nM; slope exponent -0.7837
[14] = tested on: G13 (DNA, aptamer) GGGAGGACGAAGCGGAACCCATGGGGTGTGAGGCTCGATCAGGAGGTAAAAGCAGCGCGTCGTCAGTGTGCAGAAGACACGCCCGACA; assay: biolayer interferometry; conditions: 100 mM Na+, 5 mM K+, 2 mM Mg2+, 1 mM Ca2+; 20 mM Tris-HCl pH 7.6; 1:1 fit

| binding ([1]; NB [sic], highest concentration not stated) | binding ([2]; tested up to 1.5 µM) | binding [3] | KD [4] [nM] | KD [5] [nM] | binding [6] | KD [1] [nM] | KD [7] [nM] | KD [8] [nM] | KD [9] [nM] | KD [10] [nM] | binding [11] | KD [12] [nM] | EC50 [13] [nM] | KD ([2]; 1:1 fit) [nM] | KD [14] | SMILES |
| --- | --- | --- | --- | --- | --- | --- | --- | --- | --- | --- | --- | --- | --- | --- | --- | --- |
| no | no | – | – | – | – | – | – | – | – | – | – | – | – | – | – | C=C1[C@@H](O)[C@@H]2O[C@]3(CC[C@H](/C=C/[C@@H](C)[C@@H]4CC(C)=C[C@@]5(O[C@H](C[C@@](C)(O)C(=O)O)CC[C@H]5O)O4)O3)CC[C@H]2O[C@@H]1[C@@H](O)C[C@H](C)[C@H]1O[C@@]2(CCCCO2)CC[C@H]1C |
| – | – | no | 354.00 | 859 | no | 34.50 ± 1.72 | 501.00 | 495 | 308 | 288 | yes | 341 | 3316 | 95.30 | 168,000 nM | CC1=C[C@@H](C2=C(C)[C@@H]3/C=C(\C)[C@@H](O)CC[C@@H]4C[C@@H](C)[C@@H](O4)/C(C)=C/CCC4=NCCC[C@@]43CC2)OC1=O |
